Measured values published in ChEMBL document CHEMBL4118049, “HPLC-Based Activity Profiling for GABAA Receptor Modulators in Extracts: Validation of an Approach Utilizing a Larval Zebrafish Locomotor Assay” (J Nat Prod, 2017).
Activity calls are given as the source filed them. The rule behind the calls is not given here.

Legend:
Danio rerio [1] = species on record: Danio rerio; experiment: Toxicity in 7-days post fertilized zebra fish larvae after 1.5 to 24 hrs by microscopic analysis; type: organism-based; conditions: zebrafish, in vivo
Danio rerio [2] = species on record: Danio rerio; experiment: Anticonvulsant activity in 7-days post fertilized zebra fish larvae assessed as reduction in pentylenetetrazol-induced locomotor activity by measuring total distance traveled by larvae at 1.5 to 6 uM pretreated for 3 hrs followed by pentylenetetrazol addition measured at 5 mins interval 30 mins; type: functional, organism-based
Danio rerio [3] = species on record: Danio rerio; experiment: Anticonvulsant activity in 7-days post fertilized zebra fish larvae assessed as reduction in pentylenetetrazol-induced locomotor activity by measuring total distance traveled by larvae pretreated for 3 hrs followed by pentylenetetrazol addition measured at 5 mins interval 30 mins; type: functional, organism-based
Danio rerio [4] = species on record: Danio rerio; experiment: Anticonvulsant activity in 7-days post fertilized zebra fish larvae assessed as reduction in pentylenetetrazol-induced locomotor activity by measuring total distance traveled by larvae at 0.25 to 2 uM pretreated for 3 hrs followed by pentylenetetrazol addition measured at 5 mins interval 30 mins; type: functional, organism-based
Danio rerio [5] = species on record: Danio rerio; experiment: Anticonvulsant activity in 7-days post fertilized zebra fish larvae assessed as reduction in pentylenetetrazol-induced locomotor activity by measuring total distance traveled by larvae at 1.25 to 10 uM pretreated for 3 hrs followed by pentylenetetrazol addition measured at 5 mins interval 30 mins; type: functional, organism-based

| Compound | MTD (Danio rerio [1]) [µM] | Activity (Danio rerio [2]) | Activity (Danio rerio [3]) | Activity (Danio rerio [4]) | Activity (Danio rerio [5]) |
| --- | --- | --- | --- | --- | --- |
| CC(C)c1ccc2c(c1)CC[C@H]1[C@](C)(C(=O)O)CCC[C@]21C [DEHYDROABIETIC ACID] | 6 | Active | – | – | – |
| CN1C(=O)CN=C(c2ccccc2)c2cc(Cl)ccc21 [DIAZEPAM] | 20 | – | Dose-dependent effect | – | – |
| C=CCc1ccc(O)c(-c2cc(CC=C)ccc2O)c1 [MAGNOLOL] | 4 | – | Dose-dependent effect | – | – |
| O=C(/C=C/C=C/c1ccc2c(c1)OCO2)N1CCCCC1 [PIPERINE] | 12 | – | Dose-dependent effect | – | – |
| C=C[C@]1(C)C=C2CC[C@@H]3[C@](C)(CCC[C@@]3(C)C(=O)O)[C@H]2CC1 [SANDARACOPIMARIC ACID] | 2 | – | – | Active | – |
| CC(C)=CC[C@]12Oc3cc(O)c([C@H]4C=C(C)C[C@H](c5ccc(O)cc5O)[C@H]4C(=O)c4ccc(O)cc4O)c(O)c3C(=O)[C@@]1(O)Oc1cc(O)ccc12 [SANGGENON C] | 2 | – | – | inactive | – |
| C=C(C)[C@H](CC=C(C)C)Cc1c(O)cc(O)c2c1O[C@H](c1ccc(O)cc1O)CC2=O [SOPHORAFLAVANONE G] | 10 | – | – | – | Active |
| CC1=C2[C@H](/C=C(\C)C(=O)O)CC[C@@H](C)[C@H]2CC1 [VALERENIC ACID] | 10 | – | Dose-dependent effect | – | – |
